Data published in publication PMC1208959 (Virology Journal, 2005).

Tests used:
[1] = molecular target: NiV F and NiV G glycoproteins (Nipah virus, UniProt Q9IH63); type: cell-based
[2] = tested on: live HeV
[3] = tested on: live NiV
[4] = molecular target: HeV F and HeV G glycoproteins (Hendra virus, UniProt O89342); type: cell-based
Sequence of HeV F and HeV G glycoproteins (O89342 110-546 limits assumed): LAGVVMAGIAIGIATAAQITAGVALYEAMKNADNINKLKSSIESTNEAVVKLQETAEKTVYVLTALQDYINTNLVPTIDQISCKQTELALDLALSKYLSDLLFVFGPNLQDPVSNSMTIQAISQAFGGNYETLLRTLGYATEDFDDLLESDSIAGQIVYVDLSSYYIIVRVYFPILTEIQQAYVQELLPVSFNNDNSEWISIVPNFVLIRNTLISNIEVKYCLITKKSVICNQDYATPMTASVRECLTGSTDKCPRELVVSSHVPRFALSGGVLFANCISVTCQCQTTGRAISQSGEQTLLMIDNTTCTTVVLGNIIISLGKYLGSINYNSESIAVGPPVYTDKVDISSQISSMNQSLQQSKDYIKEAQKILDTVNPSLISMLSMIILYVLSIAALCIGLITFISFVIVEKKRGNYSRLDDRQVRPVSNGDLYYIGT
Sequence of HeV F and HeV G glycoproteins (O89342 27-109 partner limits assumed): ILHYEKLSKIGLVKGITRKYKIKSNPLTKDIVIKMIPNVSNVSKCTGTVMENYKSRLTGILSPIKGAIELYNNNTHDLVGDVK

Sequence of NiV F and NiV G glycoproteins (Q9IH63 110-546 limits assumed): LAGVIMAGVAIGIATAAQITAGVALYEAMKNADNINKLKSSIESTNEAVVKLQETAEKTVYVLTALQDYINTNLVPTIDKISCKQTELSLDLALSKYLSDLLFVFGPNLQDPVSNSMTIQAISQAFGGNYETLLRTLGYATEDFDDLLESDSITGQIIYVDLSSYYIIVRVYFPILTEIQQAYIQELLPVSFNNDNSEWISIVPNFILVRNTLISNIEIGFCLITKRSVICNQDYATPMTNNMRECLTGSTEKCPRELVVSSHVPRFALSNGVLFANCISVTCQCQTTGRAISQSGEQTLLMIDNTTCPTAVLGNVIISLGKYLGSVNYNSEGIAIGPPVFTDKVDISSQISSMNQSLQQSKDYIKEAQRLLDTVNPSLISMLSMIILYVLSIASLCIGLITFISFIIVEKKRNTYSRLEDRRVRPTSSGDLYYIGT
Sequence of NiV F and NiV G glycoproteins (Q9IH63 27-109 partner limits assumed): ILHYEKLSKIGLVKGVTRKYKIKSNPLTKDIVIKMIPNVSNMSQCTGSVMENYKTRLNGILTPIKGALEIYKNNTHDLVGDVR

## KQSSMISLQSQKSINSLPSQIRDYVQKTVLLAEDND [C-PEG-ScNiV FC2, reference compound]
[1]
  inhibitory effect on cell-fusion (in words): no inhibitory activity
[2]
  effect on virus infection (in words): no effect at any concentration tested
  syncytial morphology and size (in words): identical to those observed in the absence of any peptide
[3]
  effect on virus infection (in words): no effect at any concentration tested
  syncytial morphology and size (in words): identical to those observed in the absence of any peptide
[4]
  inhibitory effect on cell-fusion (in words): no inhibitory activity

## CC[C@H](C)[C@H](NC(=O)[C@H](Cc1ccc(O)cc1)NC(=O)[C@H](CC(=O)O)NC(=O)[C@H](CCCCN)NC(=O)[C@H](CO)NC(=O)[C@H](CCC(N)=O)NC(=O)[C@H](CCC(N)=O)NC(=O)[C@H](CC(C)C)NC(=O)[C@H](CO)NC(=O)[C@H](CCC(N)=O)NC(=O)[C@H](CC(N)=O)NC(=O)[C@H](CCSC)NC(=O)[C@H](CO)NC(=O)[C@H](CO)NC(=O)[C@@H](NC(=O)[C@H](CCC(N)=O)NC(=O)[C@H](CO)NC(=O)[C@H](CO)NC(=O)[C@@H](NC(=O)[C@H](CC(=O)O)NC(=O)[C@@H](NC(=O)[C@H](CCCCN)NC(C)=O)C(C)C)[C@@H](C)CC)[C@@H](C)CC)C(=O)N[C@@H](CCCCN)C(=O)N[C@@H](CCC(=O)O)C(=O)N[C@@H](C)C(=O)N[C@@H](CCC(N)=O)C(=O)N[C@@H](CCCNC(=N)N)C(=O)N[C@@H](CC(C)C)C(=O)N[C@@H](CC(C)C)C(=O)N[C@@H](CC(=O)O)C(=O)N[C@H](C(=O)N[C@H](C(=O)N[C@@H](CC(N)=O)C(=O)N1CCC[C@H]1C(=O)N[C@@H](CO)C(=O)N[C@@H](CC(C)C)C(=O)NCCOCCOCCOCCOCCOCCOCCOCCOCCOCCOCCOCCOCCC(=O)O)C(C)C)[C@@H](C)O [C-PEG NiV FC2]
[1]
  reduction of activity versus N-PEG-NiV FC2: approximately 20 fold
[4]
  reduction of activity versus N-PEG-NiV FC2: approximately 20 fold

## Ac-KQSSMISLQSQKSINSLPSQIRDYVQKTVLLAEDND-NH2 [capped-ScNiV FC2]
[1]
  inhibitory effect on cell-fusion (in words): no inhibitory effect
[4]
  inhibitory effect on cell-fusion (in words): no inhibitory effect
